Assays:
[1] = Solubility in toluene at 60° C.; format: physicochemical
Experimental: The solubility of Cn-DNTTs (Cn=a linear alkyl chain) are very low in organic solvents (up to ˜80 mg/L in toluene at 60° C.) (see: Adv. Mater. 2011, 23, 1222-1225).

melting point [°C] | solubility ([1]; in toluene at 60° C.) | solubility relative to corresponding linear alkyl chain DNTT compounds ([1]; toluene at 60° C., times higher) [times] | SMILES
280 to 281 |  |  | CCCC(C)c1ccc2cc3c(cc2c1)sc1c2cc4ccc(C(C)CCC)cc4cc2sc31 (stereo not shown) [2,9-1MB-DNTT, 2,9-Bis(1-methylbutyl)dinaphtho [2,3-b:2′,3′-f]thieno[3,2-b]thiophene]
262 to 263 | about 50 g/L | > 500 | CCCCC(C)c1ccc2cc3c(cc2c1)sc1c2cc4ccc(C(C)CCCC)cc4cc2sc31 (stereo not shown) [2,9-1MP-DNTT, 2,9-Bis(1-methylpentyl)dinaphtho[2,3-b:2′,3′-f]thieno[3,2-b]thiophene]
